Values belong to the molecule of their own block, whether it stands above or below them. Numbered stars: 1 amine (or outer) side, 2 acyl side, 3 side chain; on linkers, the order of the positions; unused ones are H or OH. Bridge positions count the residues as written; N and C are the ends. Square brackets hold non-standard residues; d marks the D form. Peptide text beside a SMILES is read from it. ξ: configuration not given here. Ala(Nα-(CH2)3CO) = C[C@@H](C(=O)[*:2])N(CCCC(=O)[*:3])[*:1]; Ala(Nα-(CH2)3NH) = C[C@@H](C(=O)[*:2])N(CCCN[*:3])[*:1]; Gly(Nα-(CH2)3CO) = O=C(CN(CCCC(=O)[*:3])[*:1])[*:2]; N(2-Aminoethyl)Gly = O=C(CN(CCN[*:3])[*:1])[*:2]; ξY = NC(Cc1ccc(O)cc1)C(=O)O
Columns and labels:
[1] = test system: TF1 cells maintained with IL-6; assay: Bioassay using TF1 cells maintained with IL-6; type: cell-based, human; parameters: TF1: unit not given here; conditions: for TF1: MPS crude peptides, Table 6
Text: TF1 cells (human erythroleukemia) cells require IL-6 for growth and thus inhibition of IL-6 bioactivity results in cell death, similar to T1165 cells. The origin of all relevant molecules is human.
The problem associated with toxicity (false positive results), could be overcome in the TF1 based assay since these cells can be induced by additional cytokines which are unrelated to IL-6 (not using the gp130 signal transducer). It, is possible to induce the cells to grow with IL-6 and with additional cytokine e.g. GM-CSF. Specific inhibition of IL-6 bioactivity is therefore expected to register only in cells induced by IL-6 and not with GM-CSF. […] Assay procedure is based on the procedure described in Fourcin et al. (ibid). The amount of viable cells at the end of the assay is determined by staining the cells with WST reagent as well as by measuring thymidine corporation (^3H-T).
The libraries were screened for binding of soluble IL-6. The information obtained was used for synthesis of backbone cyclic peptides in MPS format. Analyses for biological activity were performed on the TF1 human cell line.
Since the endpoint of the bioassay used is cell death, there is a need to check the specificity of the killing action, and to examine whether the cell death is due to inhibition of the IL-6 signaling pathway. The peptide analogs were therefore analyzed for their ability to induce non-specific cell death when the same cells were maintained with GM-CSF (instead of IL-6) as growth factor.

[2] = test system: B16.F10.9 melanoma cells; conditions: for B16F10.9 active at: theoretical crude concentration, MPS peptides; for concentration that fully blocks IL-6 activity: 200 ng/ml IL-6 and 125 ng/ml sIL-6R, three days, FIG. 2
Text: The F10.9 sub-line of B16 (murine melanoma) expresses gp130 but not IL-6R. Addition of human IL-6 and human IL-6R, or a chimera of IL-6/IL-6R results in differentiation which is associated with growth arrest of the cells. Inhibition of IL-6 results in continued growth. Since the end point of this assay is cell growth rather than cell death, this assay system was used primarily in order to differentiate between suspected toxic effects observed on B9 or T1165 cells, and true inhibition of IL-6 activity.
Evaluation of the results in this assay is possible using two methods. One method uses vital dyes for monitoring cell growth. The second method comprises visual observation of the cell morphology and establishing a cut off point based on the following observations:
Cells which are not treated with IL-6 create a monolayer that covers almost all the surface area. Treatment with IL-6 causes growth arrest and a morphological change: the cells become very narrow and elongated as compared to the more spread out shape of the non-treated cells.
Peptides were added to B16.F10.9 melanoma cells in the presence of 200 ng/ml IL-6 and 125 ng/ml sIL-6R. Incubation for three days.

[3] = test system: A375 cells; assay: Bioassay using A375 cells, cytokines other than IL-6; type: cell-based, human; conditions: maximal inhibitory activity of IL-6 on A375 cells = 100%
Text: The A375 are human melanoma cells. IL-6 induces differentiation of A375 cells which is associated with growth arrest similar to the phenomenon observed with the B16F10.9 murine melanoma cells. Thus, inhibition of IL-6 results in continued growth of the cells which is easily quantifiable. In such case toxicity of peptides would register as a false negative rather than false positive. This conditions is preferable during screening process. Second, since these are human cells, the molecules involved in the bio-response, i.e. IL-6, IL-6R and gp130 are all of human origin thus ensuring authenticity of the tested peptide bioactivity. Another advantage of the A375 cells is their ability to be induced by other cytokines that share the gp130 signal transducer, i.e. leukemia inhibitory factor (LIF) and oncostatine M (OSM). […] The availability of this assay system, allows us to test, the specificity of our IL-6 inhibitory peptides vs. other cytokines of the family, in an array of assays all using a single cell line. Assay performance is described in Savino et al. (ibid).

[4] = test system: IL-6 mediated acute-phase response; assay: IL-6 mediated acute-phase response (turpentine model); type: in vivo, mice; conditions: mice, turpentine, 1 or 10 mg/kg of peptide
Text: The objective was to establish a simple first-line in-vivo model, for testing the activity of IL-6 inhibitors. The turpentine model was chosen based on the principal role that IL-6 plays in this inflammatory response.
Systemic and localized inflammation elicit a general reaction in the organism, known as the acute phase response, which includes fever, loss of body weight, hypoglycemia, and changes in the serum levels of several plasma proteins produced by the liver. IL-6 is an important mediator of the acute-phase reaction (see Heinrich et.al., Biochemistry J. 1 265:621, 1990 for a comprehensive review), together with IL-1 and TNF-α. It has been shown previously that sterile tissue damage caused by injection of turpentine induces an acute-phase reaction, and that IL-6 is an essential mediator of this response (Rokita et.al., Cytokine 5:454, 1993).
IL-6 knock-out (-/-) and matched wild-type (C57/Black; CB) mice were used. Sterile tissue damage was induced by subcutaneous injection of turpentine, 0.1 ml, into both hind limbs. IL-6 was determined in the serum by ELISA (QuantikineM, R&D). For liver acute-phase proteins, Fibrinogen was determined in citrated plasma, by the calcium method.
PTR 5045 (SEQ ID NO:75) was tested in this model in compare to the non-relevant control peptide PTR 4041 (SEQ ID NO:33) (Lys-GlyC2-Leu-Ile-Gln-Leu-Phe-GlyN3-Lys-Lys-NH2).

[5] = target: leukocyte inhibitory factor receptor (LIF-R); assay: cell-based or functional assay

Molecule: C[C@@H](C(N)=O)N1CCCNC(=O)CCCN(C(=O)[C@@H](Cc2ccccc2)NC(=O)[C@H](CCCNC(=N)N)NC(=O)[C@H](CCCCN)NC(=O)[C@H](CCCNC(=N)N)NC(=O)[C@H](N)CCCCN)[C@@H](C)C(=O)N[C@@H](CCCCN)C(=O)N[C@@H](CCCNC(=N)N)C(=O)N[C@@H](Cc2ccc(O)cc2)C1=O [(D)Lys-Arg-Lys-Arg-(D)Phe-AlaC3-Lys-Arg-Tyr-AlaN3] (H-[dK]RKR[dF][Ala(Nα-(CH2)3CO)]KRY[Ala(Nα-(CH2)3NH)]-NH2; lactam 6-10)
TF1 [1]: 55
B16F10.9 active at [2]: 62 µM

Molecule: CC(C)C[C@@H]1NC(=O)[C@H](C)N(C(=O)[C@H](Cc2ccccc2)NC(=O)[C@@H](CCCNC(=N)N)NC(=O)[C@H](CCCCN)NC(=O)[C@H](CCCNC(=N)N)NC(=O)[C@@H](N)CCCCN)CCCC(=O)NCCCN([C@@H](C)C(N)=O)C(=O)C(Cc2ccc(O)cc2)NC(=O)[C@H](CCCNC(=N)N)NC1=O (stereo partly drawn) [Lys-Arg-Lys-(D)Arg-Phe-AlaC3-Leu-Arg-BTyr-AlaN3] (H-KRK[dR]F[Ala(Nα-(CH2)3CO)]LR[ξY][Ala(Nα-(CH2)3NH)]-NH2; lactam 6-10)
TF1 [1]: 85
B16F10.9 active at [2]: <12 µM

Molecule: C[C@@H](C(N)=O)N1CCCNC(=O)CCCN(C(=O)[C@H](Cc2ccccc2)NC(=O)[C@H](CCCNC(=N)N)NC(=O)[C@H](CCCCN)NC(=O)[C@H](CCCNC(=N)N)NC(=O)[C@@H](N)CCCCN)[C@@H](C)C(=O)N[C@@H](CCCCN)C(=O)N[C@H](CCCNC(=N)N)C(=O)NC(Cc2ccc(O)cc2)C1=O (stereo partly drawn) [Lys-Arg-Lys-Arg-Phe-AlaC3-Lys-(D)Arg-BTyr-AlaN3] (H-KRKRF[Ala(Nα-(CH2)3CO)]K[dR][ξY][Ala(Nα-(CH2)3NH)]-NH2; lactam 6-10)
TF1 [1]: 21
B16F10.9 active at [2]: 62 µM

IC50 in the B16F10.9 cell assay [2]: around 10 μ/ml
Molecule: CC(C)C[C@@H]1NC(=O)CN(C(=O)[C@H](Cc2ccccc2)NC(=O)[C@H](CCCNC(=N)N)NC(=O)[C@H](CC(C)C)NC(=O)[C@H](CCCNC(=N)N)NC(=O)[C@@H](N)Cc2ccc(O)cc2)CCCC(=O)NCCN(CC(N)=O)C(=O)[C@H](Cc2ccc(O)cc2)NC(=O)[C@H](CCCNC(=N)N)NC1=O [PTR 5005, Tyr-Arg-Leu-Arg-Phe-GlyC3-Leu-Arg-Tyr-GlyN2] (H-YRLRF[Gly(Nα-(CH2)3CO)]LRY[N(2-Aminoethyl)Gly]-NH2; lactam 6-10)
activity on TF1 cells ([1]; in words): appears to be active

Molecule: CC(C)C[C@@H](NC(=O)[C@H](CCCNC(=N)N)NC(=O)[C@H](N)CCCCN)C(=O)N[C@H](CCCNC(=N)N)C(=O)N[C@H](Cc1ccccc1)C(=O)N1CCCC(=O)NCCCN([C@@H](C)C(N)=O)C(=O)[C@@H](Cc2ccc(O)cc2)NC(=O)[C@H](CCCNC(=N)N)NC(=O)[C@@H](CC(C)C)NC(=O)[C@@H]1C [PTR 5041, (D)Lys-Arg-(D) Leu-(D) Arg-(D)Phe-AlaC3-(D)Leu-Arg-(D)Tyr-AlaN3-NH2] (H-[dK]R[dL][dR][dF][Ala(Nα-(CH2)3CO)][dL]R[dY][Ala(Nα-(CH2)3NH)]-NH2; lactam 6-10)
TF1 [1]: 92
concentration that fully blocks IL-6 activity [2]: about 250 nM
B16F10.9 active at [2]: 47 µM

Molecule: CC(C)C[C@@H]1NC(=O)[C@H](C)N(C(=O)[C@@H](Cc2ccccc2)NC(=O)[C@@H](CCCNC(=N)N)NC(=O)[C@H](CCCCN)NC(=O)[C@H](CCCNC(=N)N)NC(=O)[C@@H](N)Cc2c[nH]c3ccccc23)CCCC(=O)NCCCN([C@@H](C)C(N)=O)C(=O)C(Cc2ccc(O)cc2)NC(=O)[C@H](CCCNC(=N)N)NC1=O (stereo partly drawn) [Trp-Arg-Lys-(D)Arg-(D)Phe-AlaC3-Leu-Arg-BTyr-AlaN3] (H-WRK[dR][dF][Ala(Nα-(CH2)3CO)]LR[ξY][Ala(Nα-(CH2)3NH)]-NH2; lactam 6-10)
TF1 [1]: 41
B16F10.9 active at [2]: <12 µM

Molecule: CC(C)C[C@@H]1NC(=O)[C@H](C)N(C(=O)[C@H](Cc2ccccc2)NC(=O)[C@@H](CCCNC(=N)N)NC(=O)[C@H](CCCCN)NC(=O)[C@H](CCCNC(=N)N)NC(=O)[C@@H](N)Cc2c[nH]c3ccccc23)CCCC(=O)NCCCN([C@@H](C)C(N)=O)C(=O)C(Cc2ccc(O)cc2)NC(=O)[C@H](CCCNC(=N)N)NC1=O (stereo partly drawn) [Trp-Arg-Lys-(D)Arg-Phe-AlaC3-Leu-Arg-BTyr-AlaN3] (H-WRK[dR]F[Ala(Nα-(CH2)3CO)]LR[ξY][Ala(Nα-(CH2)3NH)]-NH2; lactam 6-10; C-terminus assumed)
TF1 [1]: 32
B16F10.9 active at [2]: <12 µM

Molecule: CC(C)C[C@@H]1NC(=O)[C@H](C)N(C(=O)[C@@H](Cc2ccccc2)NC(=O)[C@@H](CCCNC(=N)N)NC(=O)[C@H](CCCCN)NC(=O)[C@H](CCCNC(=N)N)NC(=O)[C@@H](N)Cc2ccc(O)cc2)CCCC(=O)NCCCN([C@@H](C)C(N)=O)C(=O)C(Cc2ccc(O)cc2)NC(=O)[C@@H](CCCNC(=N)N)NC1=O (stereo partly drawn) [Tyr-Arg-Lys-(D)Arg-(D)Phe-AlaC3-Leu-(D)Arg-BTyr-AlaN3] (H-YRK[dR][dF][Ala(Nα-(CH2)3CO)]L[dR][ξY][Ala(Nα-(CH2)3NH)]-NH2; lactam 6-10)
TF1 [1]: 19
B16F10.9 active at [2]: 47 µM

Molecule: (D)Lys-Arg-Lys-Arg-Phe-AlaC3-(D)Leu-(D)Arg-Tyr-AlaN3
TF1 [1]: 27
B16F10.9 active at [2]: not active

Molecule: (D)Lys-Arg-Lys-Arg-Phe-AlaC3-Leu-(D)Arg-(D)Tyr-AlaN3
TF1 [1]: 19
B16F10.9 active at [2]: not active

Molecule: (D)Lys-Arg-Lys-Arg-Phe-AlaC3-Leu-Arg-(D)Tyr-AlaN3
TF1 [1]: 25
B16F10.9 active at [2]: not active

Molecule: (D)Lys-Arg-Lys-Arg-Phe-AlaC3-Lys-Arg-(D)Tyr-AlaN3
TF1 [1]: 21
B16F10.9 active at [2]: not active

Molecule: (D)Tyr-Arg-Lys-Arg-Phe-AlaC3-Lys-(D)Arg-(D)Tyr-AlaN3
TF1 [1]: 22
B16F10.9 active at [2]: not active

Molecule: LIF: leukemia inhibitory factor, cytokine that shares the gp130 signal transducer
% Inhibition (relative to IL-6) ([3]; cytokine 1 ng/ml): 1%
% Inhibition (relative to IL-6) ([3]; cytokine 10 ng/ml): 2%

Molecule: Lys-Arg-Leu-(D)Arg-(D)Phe-AlaC3-Lys-Arg-BTyr-AlaN3
TF1 [1]: 22
B16F10.9 active at [2]: not active

Molecule: Lys-GlyC2-Leu-Ile-Gln-Leu-Phe-GlyN3-Lys-Lys-NH2 (KGLIQLFGKK; not fully specified; backbone cyclization, C-amide; listed as Homo sapiens) [PTR 4041, reference compound]
Mean weight loss % [4]: −7.3%
Mean weight loss grams [4]: −2.51 grams
concentration that fully blocks IL-6 activity [2]: not active

% Inhibition (relative to IL-6) of A375 cells, LIF + LIFR at 10 ng/ml [5]: 45%
Molecule: leukemia inhibitory factor (LIF) (ligand)

B1: OSM: oncostatine M, cytokine that shares the gp130 signal transducer (protein, UniProt P13725 26-221, looked up)
Oncostatin-M: AAIGSCSKEYRVLLGQLQKQTDLMQDTSRLLDPYIRIQGLDVPKLREHCRERPGAFPSEETLRGLGRRGFLQTLNATLGCVLHRLADLEQRLPKAQDLERSGLNIEDLEKLQMARPNILGLRNNIYCMAQLLDNSDTAEPTKAGRGASQPPTPTPASDAFQRKLEGCRFLHGYHRFMHSVGRVFSKWGESPNRSRR
% Inhibition (relative to IL-6) ([3]; cytokine 1 ng/ml): 94%
% Inhibition (relative to IL-6) ([3]; cytokine 10 ng/ml): 141%
